For series [1], the system named is normal human fibroblasts. The series can be described thus: AS-induced toxicity to normal human fibroblasts, crystal violet cell number. It is filed as cell-based. Particulars: for effect on AS cytotoxicity to human fibroblasts: ascorbic acid 5 mM, POBN 10 mM, DMSO 0.2 M in incubation medium. Here is the method: Human fetal fibroblasts were cultured as described herein. Briefly, human fetal hearts of gestational age 16-24 weeks are aseptically obtained after elective termination of normal pregnancy by dilatation and evacuation. The aorta is then cannulated for continuous perfusion of the coronary arteries with calcium-free Tyrode's solution (117 mM NaCl, 5.7 mM KCl, 11 mM glucose, 4.4 mM NaHCO3, 1.5 mM KH2PO4, 1.7 mM MgCl2, HEPES 20 mM, pH 7.4) containing 1 U/ml of Na-heparin at 37° C., bubbled with 100% O2 as described for the Langendorff preparation. After 15 min of washing to clear the blood from the heart, fresh calcium-free Tyrode's solution containing 1.5 mg/ml collagenase A (type III) is recirculated for approximately 20 minutes. The heart dissociates spontaneously, allowing cells to slowly drip and fall on a Petri dish containing 0.25% trypsin, 1 mM EDTA in HBSS. Clumps of cells are dissociated and the resulting suspension poured over a cell strainer. Cells are centrifuged and the pellet resuspended in 20 ml of culture medium [DME supplemented with 10% fetal bovine serum, 50 U/ml PCN, 50 U/ml streptomycin, […] gentamicin, 1 mM non-essential amino acid (Gibco Laboratories), 0.1 mM essential medium vitamins (Gibco Laboratories), 2 mM glutamine, 0.1 mM Na pyruvate]. To obtain primary cardiac fibroblasts, the isolate will be plated in flasks (20 min at 37° C.). The fibroblasts will be passaged at 12×10^6 cells per 75 cm2 culture flask and grown in 5% CO2 at 37° C. After 3 passages in culture, the fibroblast stain using the fibroblast-specific antibody (monoclonal anti-human fibroblast surface protein, Clone 1B10).
The concentration of the hydroxylamine was determined by co-injection of 4-methylpicoline as described in Analytical Chemistry, Stoyanovsky, et al., supra. […] Normal human fibroblasts (800 cells per plate) were treated for 30 minutes at 37° C. with AS in 50 mM phosphate buffer (pH 6.3, open circles; pH 7.4, filled circles) containing 0.15 M NaCl and 0.2 mM CaC12. Thereafter, the fluid was removed, the cells were covered with minimal essential medium containing 10% fetal bovine serum (Sigma Chem. Co.,St. Louis, Mo.) and incubated at 37° C.; after 4 hours, the cell number was determined by the crystal violet method as known by those skilled in the art. Results are from four independent experiments. Each experimental point represents the mean of triplicate±SEM % (Mean value±standard error; n=3) of controls. […] The cells were treated as indicated in FIG. 5B except that in the incubation medium was included (1) ascorbic acid (5 mM) plus SOD (superoxide dismuthase)(300 U per ml) plus catalase (500 U per ml) filled circles, all purchased from Sigma Chem. Co.; (2) POBN (10 mM) open circles; or 3. DMSO ([…]) filled triangles.

Series [2] has as its system breast cancer cells (BRCA1, OMIM Number 113705). The series can be described thus: AS-induced toxicity to breast cancer cells, crystal violet cell number. It is filed as cell-based, human.
The conditions of series [3]: cited from earlier work.

On to `O=C1O[C@H]([C@@H](O)CO)C(O)=C1O` [ascorbic acid, reference compound], for which the “effect on AS cytotoxicity to human fibroblasts” value (from here on “effect on AS cytotoxicity”) in series [1] is given as “protective effect”.

Take `[Na+].[Na+].[O-][N+]([O-])=NO` [AS, sodium trioxodinitrate]: the “toxicity to normal human fibroblasts” value is recorded as “toxic” in series [1] (acidic conditions) and “not toxic” in series [1] (non-acidic conditions). In addition, the cell toxicity entry in series [1] (pH 7.4) and in series [2] (pH 7.4) was “not observed” throughout. For the same molecule, in series [2] (pH 6.2, 30 minutes at 37° C. with AS, cell number after 4 hours), the “death of treated cells” value is given as “approximately 70%”. Moreover, the stability entry in series [3] (alkaline solutions) is on record as “relatively stable”. The pK1 in series [3] (aqueous solution) is recorded as 3.0. The pK2 in series [3] (aqueous solution) was 9.35. For the same molecule, the rate of decomposition result in series [3] (pH interval of 3.5 to 8.5) was “rapid, proton-independent”.

For `CC(C)(C)[N+]([O-])=Cc1cc[n+]([O-])cc1` [POBN, alpha-(4-Pyridyl-1-oxide)-N-tert-butylnitrone, reference compound], the “effect on AS cytotoxicity” value in series [1] is “protective effect”.

As for `C[S+](C)[O-]` [DMSO, dimethyl sulfoxide, reference compound], in series [1], the “effect on AS cytotoxicity” value was “protective effect”.

The values are drawn from US20030068386A1, “Method of treating cancerous disease” (priority 2001, published 2003).
